These results are taken from PMC8791944, “GLUT3 inhibitor discovery through in silico ligand screening and in vivo validation in eukaryotic expression systems” (Scientific Reports, 2022).

The target of this assay is T1, GLUT5S72Y (Homo sapiens, UniProt P22732, S72Y).
T1 construct: expressed in transfected cells; host or cells: Saccharomyces cerevisiae hxt0 strain EBY.VW4000
T1 sequence (P22732 1-501 S72Y): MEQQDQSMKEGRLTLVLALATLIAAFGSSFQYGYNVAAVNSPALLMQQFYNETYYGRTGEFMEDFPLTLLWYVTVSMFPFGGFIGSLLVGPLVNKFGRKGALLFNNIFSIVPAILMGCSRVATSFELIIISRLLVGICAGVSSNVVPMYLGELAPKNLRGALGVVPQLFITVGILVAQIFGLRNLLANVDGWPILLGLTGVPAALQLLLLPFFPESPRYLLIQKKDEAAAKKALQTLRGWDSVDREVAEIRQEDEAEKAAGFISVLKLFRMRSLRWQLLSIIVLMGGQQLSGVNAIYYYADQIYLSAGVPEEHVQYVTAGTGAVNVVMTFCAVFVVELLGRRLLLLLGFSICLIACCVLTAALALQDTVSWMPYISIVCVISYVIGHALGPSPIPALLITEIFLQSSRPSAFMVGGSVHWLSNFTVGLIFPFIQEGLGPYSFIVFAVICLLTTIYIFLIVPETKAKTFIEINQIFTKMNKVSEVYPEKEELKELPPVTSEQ
The assay is described as follows: Fructose transport assay, GLUT5S72Y expressed in hxt^0 yeast cells EBY.VW4000. The class given is cell-based. Conditions: GLUT5S72Y in hxt^0 yeast cells, 10 mM fructose; read-out: IC50 for GLUT5 transport inhibition. An excerpt:
The most studied GLUTs are Class 1 GLUTs (GLUT1-4) and a Class 2 GLUT, GLUT5 (a fructose-only transporter). GLUT3 sequence homology and identity is 79% and 64%, 71% and 52%, 74% and 57%, and 60% and 38% with GLUT1, GLUT2, GLUT4, and GLUT5, respectively. The hxt^0 yeast cell systems expressing functional GLUT1-4[65],[69] and GLUT5[66] allow us to determine the in vivo transport activity (substrate uptake by a GLUT into whole cells) for individual GLUTs and establish GLUT3 inhibitor selectivity for these transporters. […] Given the higher sequence similarity within Class 1 GLUTs, we expected GLUT3 inhibitors to affect Class 1 GLUTs much more than GLUT5. Indeed, G3iA-G3iF reduced the transport activities of some of the other Class 1 GLUTs (Fig. 3A–C, Table 2, Supplementary Fig. S6). […] For example, G3iB was an equipotent inhibitor of GLUT4, while G3iD and G3iE inhibited GLUT1 in a similar manner to GLUT3. […] Moreover, G3iD affected all Class 1 GLUTs, having the best relative selectivity for GLUT4.
Figure 3 Effect of GLUT3 inhibitors on GLUT1, GLUT2, GLUT4, and GLUT5. The transport activity was assayed as the substrate uptake in hexose transporter-deficient yeast cells expressing functional GLUT1[65], GLUT2[69], GLUT4[65], or GLUT5[66]. […] Transport assay was initiated by the addition of C^14-labeled substrate and stopped after 10 min (see “Materials and methods” for details). (A–D) Effect of G3iA-G3iF, at 50 µM concentration, on the relative transport activities of GLUT1 (A), GLUT2 (B), GLUT4 (C), and GLUT5 (D). Standard deviations for experimental points come from at least three independent measurements.
The plasmids containing functional constructs of GLUT1-5 were transformed in the corresponding hxt^0 strains[65],[66],[73] (EBY.VW4000 for GLUT5S72Y, EBY.S7 for GLUT1, GLUT2∆loopS_Q455R, GLUT3 and GLUT3S66Y, and SDY.022 for GLUT4) and grown on 2% (w/v) agar plates of the respective media supplemented with 1% (w/v) maltose. An initial culture of ~ 10 ml was started with a few colonies and grown for 2–3 days if the media was SC-uracil with 1% (w/v) maltose (GLUT1, GLUT3, GLUT4) or 1–2 days if the media was YEP with 1% (w/v) maltose and 100 µg/ml geneticin G418 (GLUT2∆loopS_Q455R and GLUT5S72Y). […] Then, cells were transferred in the same media so that OD600nm ~ 0.5 and grown further for 1–2 days.
For transport activity assay, cells in the hexose media were centrifuged (1000×g, 5 min, room temperature), washed once with PBS buffer (10 mM Na2HPO4, 1.8 mM KH2PO4, 2.7 mM KCl, 137 mM NaCl, pH 7.4), and resuspended in PBS buffer at an OD600nm ~ 10; each assay contained 100 µl of this cell solution. […] Substrate uptake into cells was linear for more than 20 min. […] The filtration membranes were transferred into scintillation vials with 10 ml of Scintillation Solution (BioSafeII; Research Products International, Mount Prospect, IL, USA), and vortexed briefly. The radioactivity was determined with a scintillation counter (Tri-carb 2900TR, Perkin Elmer, USA). As all compounds were solubilized in dimethyl sulfoxide (DMSO), controls for determining the relative transport activity included 1% (v/v) DMSO to represent DMSO used as vehicle control (i.e., 100% activity), and known inhibitors at saturating concentrations, 200 µM phloretin for GLUT1-4[69],[82], and 100 µM N-[4-(methylsulfonyl)-2-nitrophenyl]-1,3-benzodioxol-5-amine (MSNBA) for GLUT5 (i.e., complete inhibition). […] Data were analyzed with GraphPad Prism (San Diego, CA, USA).

For the compound `COc1ccccc1-n1c(/C=C/c2ccc(O)cc2)nc2ccc(Br)cc2c1=O` [G3iB, 6-bromo-2-[(E)-2-(4-hydroxyphenyl)ethenyl]-3-(2-methoxyphenyl)quinazolin-4(3H)-one], the IC50 is above 50 µM. Take `Cc1cccnc1OC1CCN(c2cc(N3CCCC3CO)ncn2)CC1` (stereo not drawn) [G3iC]: the 50% inhibitory concentration (IC50) was above 50 µM. Consider `Cc1ccccc1CN(Cc1nnc(C(C)(C)C)o1)c1ccc2nc(O)[nH]c2c1` [G3iF], for which the IC50 is above 50 µM. Consider `CC(=O)Nc1ccc(S(=O)(=O)Nc2ccc(Nc3cc(N(C)C)nc(C)n3)cc2)cc1` [G3iA, N-(4-{[(4-{[6-(dimethylamino)-2-methylpyrimidin-4-yl]amino}phenyl)amino]sulfonyl}phenyl)acetamide], for which the IC50 was above 50 µM. For `O=C(Nc1cccc(Cl)c1)c1cccc(NC(=O)c2cccc([N+](=O)[O-])c2)c1` [G3iE, N-{3-[(3-chloroanilino)carbonyl]phenyl}-3-nitrobenzamide], the IC50 was above 50 µM.

For `Cc1cc(NC(=O)CCC2Cc3ccccc3NC2=O)nc(-c2ccccc2)n1` (stereo not drawn) [G3iD], the concentration for half-maximal inhibition (IC50) was above 50 µM.

As a reminder, the IC50 is the concentration that inhibits the measured activity by half.
